Values quoted from earlier work in patent US20110045130A1, “BIOACTIVE PEPTIDE PRODUCTION” (priority 2007, published 2011).

Columns and labels:
[1] = molecular target: angiotensin converting enzyme (ACE) (Homo sapiens, UniProt P12821); details: in vitro effect on ACE activity; relatively low IC50 values
[2] = test system: spontaneously hypertensive rats; details: tripeptides derived from lactic acid bacteria fermented milk

Chain of angiotensin converting enzyme (ACE) (P12821 30-1306, species assumed): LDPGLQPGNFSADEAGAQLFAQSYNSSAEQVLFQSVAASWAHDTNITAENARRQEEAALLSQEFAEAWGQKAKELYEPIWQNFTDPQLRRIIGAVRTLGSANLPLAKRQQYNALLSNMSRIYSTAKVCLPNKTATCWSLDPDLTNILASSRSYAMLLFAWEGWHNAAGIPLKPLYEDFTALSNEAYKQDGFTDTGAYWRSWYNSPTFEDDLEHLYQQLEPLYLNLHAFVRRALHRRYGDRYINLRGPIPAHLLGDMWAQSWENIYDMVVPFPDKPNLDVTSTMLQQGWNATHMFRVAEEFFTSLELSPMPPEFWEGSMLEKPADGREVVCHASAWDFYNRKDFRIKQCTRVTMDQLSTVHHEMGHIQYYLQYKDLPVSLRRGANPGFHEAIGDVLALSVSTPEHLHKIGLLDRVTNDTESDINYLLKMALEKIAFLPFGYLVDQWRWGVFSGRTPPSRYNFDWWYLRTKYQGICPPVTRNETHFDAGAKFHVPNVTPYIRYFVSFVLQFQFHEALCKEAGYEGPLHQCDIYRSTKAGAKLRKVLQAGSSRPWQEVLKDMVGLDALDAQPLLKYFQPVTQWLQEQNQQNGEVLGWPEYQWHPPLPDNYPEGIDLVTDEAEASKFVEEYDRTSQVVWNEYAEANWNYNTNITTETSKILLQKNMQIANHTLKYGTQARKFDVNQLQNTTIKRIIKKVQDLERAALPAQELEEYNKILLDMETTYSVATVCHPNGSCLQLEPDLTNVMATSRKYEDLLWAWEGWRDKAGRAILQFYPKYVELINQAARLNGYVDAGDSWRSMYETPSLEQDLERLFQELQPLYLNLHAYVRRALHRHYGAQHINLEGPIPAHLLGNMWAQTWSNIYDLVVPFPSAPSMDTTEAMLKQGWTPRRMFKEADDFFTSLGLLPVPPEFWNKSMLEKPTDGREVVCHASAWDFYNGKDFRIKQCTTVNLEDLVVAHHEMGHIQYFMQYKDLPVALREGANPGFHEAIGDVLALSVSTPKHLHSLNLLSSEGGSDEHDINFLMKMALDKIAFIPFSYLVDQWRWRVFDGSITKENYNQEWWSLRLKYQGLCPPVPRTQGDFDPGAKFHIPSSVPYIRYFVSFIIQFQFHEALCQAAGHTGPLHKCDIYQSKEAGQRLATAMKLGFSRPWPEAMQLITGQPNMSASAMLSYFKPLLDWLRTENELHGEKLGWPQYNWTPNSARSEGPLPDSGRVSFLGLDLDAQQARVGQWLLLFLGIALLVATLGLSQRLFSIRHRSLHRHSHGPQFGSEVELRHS

Row | ACE inhibiting activity [1] | Substance | antihypertensive effects [2]
1 | Strong ACE inhibiting activities | Leu-Pro-Pro [LPP] | 
2 | Strong ACE inhibiting activities | Ile-Pro-Pro [IPP] | confirmed

Row | Substance | ACE inhibiting activity [1] | antihypertensive effects [2]
3 | Val-Pro-Pro [VPP] | Strong ACE inhibiting activities | confirmed
